What was measured:
HCT116 MTAP null cells = assay: HCT116 MTAP null cell proliferation / viability (CellTiter-Glo, 6 days); format: cell-based; settings: HCT116-MTAP null, 144 h, HCT116 MTAP null cells, 6 days, CellTiter-Glo; read-out: HCT-116 MTAP null IC50
How it was run: (§1)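 CellTiter-Glo luminescence, 6-day exposure, RPMI 1640 + 10% FBS. Dosing: 1:3 series (8-9 pts, top 1 or 10 μM) or 1:2 series (22 pts, top 10 or 50 μM), DMSO control. IC50 = 50% of control via curve fit.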

HCT116 WT cells = assay: HCT116 WT cell proliferation / viability (CellTiter-Glo, 6 days); format: cell-based; settings: Homo sapiens, HCT-116, 144 h, HCT116 WT cells, 6 days, CellTiter-Glo; read-out: HCT-116 WT IC50
How it was run: as §1

SMILES | IC50 (HCT116 MTAP null cells) [nM] | IC50 (HCT116 WT cells) [nM]
C[C@H]1OCc2c1c(N)nc1ccc(C(=O)N(C)Cc3ccc(Br)cn3)cc21 [Example 328, (3R)-4-amino-N-((5-bromo-2-pyridinyl)methyl)-N,3-dimethyl-1,3-dihydrofuro[3,4-c]quinoline-8-carboxamide] | 129 | 19400
C[C@H](c1ncccn1)N(Cc1ccc(C2CC2)nn1)C(=O)c1ccc2nc(N)c3c(c2c1)CO[C@@H]3C [Example 329, (3R)-4-amino-N-((6-cyclopropyl-3-pyridazinyl)methyl)-3-methyl-N-((1R)-1-(2-pyrimidinyl)ethyl)-1,3-dihydrofuro[3,4-c]quinoline-8-carboxamide] | 22 | 160
C[C@H]1OCc2c1c(N)nc1ccc(C(=O)N(Cc3ccc(C#N)cn3)CC3CC3)cc21 [Example 331, (3R)-4-amino-N-((5-cyano-2-pyridinyl)methyl)-N-(cyclopropylmethyl)-3-methyl-1,3-dihydrofuro[3,4-c]quinoline-8-carboxamide] | 28 | 2300
CC(C)N(Cc1ccc(Br)nn1)C(=O)c1ccc2nc(N)c3c(c2c1)CO[C@@H]3C [Example 332, (3R)-4-amino-N-((6-bromo-3-pyridazinyl)methyl)-3-methyl-N-(2-propanyl)-1,3-dihydrofuro[3,4-c]quinoline-8-carboxamide] | 120 | 6100
C[C@H]1OCc2c1c(N)nc1ccc(C(=O)N(Cc3ccc(C(F)(F)F)nn3)CC3CC3)cc21 [Example 333, (3R)-4-amino-N-(cyclopropylmethyl)-3-methyl-N-((6-(trifluoromethyl)-3-pyridazinyl)methyl)-1,3-dihydrofuro[3,4-c]quinoline-8-carboxamide] | 24 | 1410
Nc1nc2ccc(C(=O)N(Cc3ccc(C4CC4)cn3)C3CC3)cc2c2c1COC2 [Example 343, 4-amino-N-cyclopropyl-N-((5-cyclopropyl-2-pyridinyl)methyl)-1,3-dihydrofuro[3,4-c]quinoline-8-carboxamide] | 270 | 8240
N#Cc1ccc(CN(C(=O)c2cc3c4c(c(N)nc3cn2)COC4)C2CC2)nc1 [Example 347, 4-amino-N-((5-cyano-2-pyridinyl)methyl)-N-cyclopropyl-1,3-dihydrofuro[3,4-c][1,7]naphthyridine-8-carboxamide] | 712 | 43800
Nc1nc2cnc(C(=O)N(Cc3ccc(C4CC4)cn3)C3CC3)cc2c2c1COC2 [Example 348, 4-amino-N-cyclopropyl-N-((5-cyclopropyl-2-pyridinyl)methyl)-1,3-dihydrofuro[3,4-c][1,7]naphthyridine-8-carboxamide] | 155 | 9040
CC(C)N(Cc1ccc(C2CC2)nc1)C(=O)c1ccc2nc(N)c3c(c2c1)CO[C@@H]3C [Example 350, (3R)-4-amino-N-((6-cyclopropyl-3-pyridinyl)methyl)-3-methyl-N-(2-propanyl)-1,3-dihydrofuro[3,4-c]quinoline-8-carboxamide] | 332 | 22100
C[C@H]1OCc2c1c(N)nc1ccc(C(=O)N(Cc3ccc(C(F)(F)F)nn3)C3CC3)cc21 [Example 353, (3R)-4-amino-N-cyclopropyl-3-methyl-N-((6-(trifluoromethyl)-3-pyridazinyl)methyl)-1,3-dihydrofuro[3,4-c]quinoline-8-carboxamide] | 124 | > 10000
C[C@H]1OCc2c1c(N)nc1ccc(C(=O)N(Cc3ccc(C#N)cn3)C3CC3)cc21 [Example 355, (3R)-4-amino-N-((5-cyano-2-pyridinyl)methyl)-N-cyclopropyl-3-methyl-1,3-dihydrofuro[3,4-c]quinoline-8-carboxamide] | 171 | 19000
C[C@H]1OCc2c1c(N)nc1ccc(C(=O)N(C)Cc3ccc(C4CC4)cn3)cc21 [Example 356, (3R)-4-amino-N-((5-cyclopropyl-2-pyridinyl)methyl)-N,3-dimethyl-1,3-dihydrofuro[3,4-c]quinoline-8-carboxamide] | 92 | 5360

The next lines start with the values.

IC50 (HCT116 MTAP null cells) [nM] | IC50 (HCT116 WT cells) [nM] | SMILES
204 | > 10000 | CN(Cc1ccc(Br)cn1)C(=O)c1ccc2nc(N)c3c(c2c1)COC3 [Example 330, 4-amino-N-((5-bromo-2-pyridinyl)methyl)-N-methyl-1,3-dihydrofuro[3,4-c]quinoline-8-carboxamide]
10 | 509 | C[C@H]1OCc2c1c(N)nc1ccc(C(=O)N(Cc3ccc(C(F)(F)F)cn3)CC3CC3)cc21 [Example 334, (3R)-4-amino-N-(cyclopropylmethyl)-3-methyl-N-((5-(trifluoromethyl)-2-pyridinyl)methyl)-1,3-dihydrofuro[3,4-c]quinoline-8-carboxamide]
87 | 2570 | Nc1nc2ccc(C(=O)N(Cc3ccc(C(F)(F)F)nn3)CC3CC3)cc2c2c1COC2 [Example 336, 4-amino-N-(cyclopropylmethyl)-N-((6-(trifluoromethyl)-3-pyridazinyl)methyl)-1,3-dihydrofuro[3,4-c]quinoline-8-carboxamide]
33 | 714 | CC1(CN(Cc2ccc(C(F)(F)F)cn2)C(=O)c2ccc3nc(N)c4c(c3c2)COC4)CC1 [Example 337, 4-amino-N-((1-methylcyclopropyl)methyl)-N-((5-(trifluoromethyl)-2-pyridinyl)methyl)-1,3-dihydrofuro[3,4-c]quinoline-8-carboxamide]
406 | 5830 | C[C@H]1OCc2c1c(N)nc1ccc(C(=O)N(Cc3ccc(C(F)(F)F)cn3)CC(C)(C)C)cc21 [Example 338, (3R)-4-amino-N-(2,2-dimethylpropyl)-3-methyl-N-((5-(trifluoromethyl)-2-pyridinyl)methyl)-1,3-dihydrofuro[3,4-c]quinoline-8-carboxamide]
25 | 611 | C[C@H]1OCc2c1c(N)nc1ccc(C(=O)N(Cc3ccc(C(F)(F)F)cn3)CC3(C)CC3)cc21 [Example 339, (3R)-4-amino-3-methyl-N-((1-methylcyclopropyl)methyl)-N-((5-(trifluoromethyl)-2-pyridinyl)methyl)-1,3-dihydrofuro[3,4-c]quinoline-8-carboxamide]
2950 | > 10000 | CC(C)(C)CN(Cc1ccc(C(F)(F)F)cn1)C(=O)c1ccc2nc(N)c3c(c2c1)COC3(C)C [Example 340, 4-amino-N-(2,2-dimethylpropyl)-3,3-dimethyl-N-((5-(trifluoromethyl)-2-pyridinyl)methyl)-1,3-dihydrofuro[3,4-c]quinoline-8-carboxamide]
212 | 3790 | CC1(CN(Cc2ccc(C(F)(F)F)cn2)C(=O)c2ccc3nc(N)c4c(c3c2)COC4(C)C)CC1 [Example 341, 4-amino-3,3-dimethyl-N-((1-methylcyclopropyl)methyl)-N-((5-(trifluoromethyl)-2-pyridinyl)methyl)-1,3-dihydrofuro[3,4-c]quinoline-8-carboxamide]
244 | > 10000 | CN(Cc1ccc(C(F)(F)F)cn1)C(=O)c1cc2c3c(c(N)nc2cn1)COC3 [Example 344, 4-amino-N-methyl-N-((5-(trifluoromethyl)-2-pyridinyl)methyl)-1,3-dihydrofuro[3,4-c][1,7]naphthyridine-8-carboxamide]
11 | 210 | CC(C)N(Cc1ccc(C(F)(F)F)cn1)C(=O)c1cc2c3c(c(N)nc2cc1F)COC3 [Example 345, 4-amino-7-fluoro-N-(2-propanyl)-N-((5-(trifluoromethyl)-2-pyridinyl)methyl)-1,3-dihydrofuro[3,4-c]quinoline-8-carboxamide]
1090 | 19400 | CC(C)N(Cc1ccc(C#N)cn1)C(=O)c1cc2c3c(c(N)nc2cn1)COC3 [Example 346, 4-amino-N-((5-cyano-2-pyridinyl)methyl)-N-(2-propanyl)-1,3-dihydrofuro[3,4-c][1,7]naphthyridine-8-carboxamide]
325 | 9190 | CN(Cc1ccc(C2CC2)cn1)C(=O)c1cc2c3c(c(N)nc2cn1)COC3 [Example 349, 4-amino-N-((5-cyclopropyl-2-pyridinyl)methyl)-N-methyl-1,3-dihydrofuro[3,4-c][1,7]naphthyridine-8-carboxamide]
48 | 3510 | C[C@H]1OCc2c1c(N)nc1ccc(C(=O)N(Cc3ccc(C(F)(F)F)cn3)C3CC3)cc21 [Example 351, (3R)-4-amino-N-cyclopropyl-3-methyl-N-((5-(trifluoromethyl)-2-pyridinyl)methyl)-1,3-dihydrofuro[3,4-c]quinoline-8-carboxamide]
872 | > 10000 | CN(Cc1ccc(C(F)(F)F)nn1)C(=O)c1ccc2nc(N)c3c(c2c1)COC3 [Example 352, 4-amino-N-methyl-N-((6-(trifluoromethyl)-3-pyridazinyl)methyl)-1,3-dihydrofuro[3,4-c]quinoline-8-carboxamide]
623 | 21400 | CC(C)N(Cc1ccc(C#N)cn1)C(=O)c1ccc2nc(N)c3c(c2c1)CO[C@@H]3C [Example 354, (3R)-4-amino-N-((5-cyano-2-pyridinyl)methyl)-3-methyl-N-(2-propanyl)-1,3-dihydrofuro[3,4-c]quinoline-8-carboxamide]
115 | 4270 | Nc1nc2cc(F)c(C(=O)N(Cc3ccc(C(F)(F)F)nn3)C3CC3)cc2c2c1COC2 [Example 357, 4-amino-N-cyclopropyl-7-fluoro-N-((6-(trifluoromethyl)-3-pyridazinyl)methyl)-1,3-dihydrofuro[3,4-c]quinoline-8-carboxamide]
